We go through 14 molecules from patent US20220340597A1, “HEXAHYDRO-1H-PYRAZINO[1,2-A]PYRAZINE COMPOUNDS FOR THE TREATMENT OF AUTOIMMUNE DISEASE” (Hoffmann-La Roche Inc., priority 2019, published 2022).

Each structure is given as a SMILES string.

In one experiment the target is T1, human TLR8 (Homo sapiens, UniProt Q9NR97).
T1 sequence (Q9NR97 27-1041): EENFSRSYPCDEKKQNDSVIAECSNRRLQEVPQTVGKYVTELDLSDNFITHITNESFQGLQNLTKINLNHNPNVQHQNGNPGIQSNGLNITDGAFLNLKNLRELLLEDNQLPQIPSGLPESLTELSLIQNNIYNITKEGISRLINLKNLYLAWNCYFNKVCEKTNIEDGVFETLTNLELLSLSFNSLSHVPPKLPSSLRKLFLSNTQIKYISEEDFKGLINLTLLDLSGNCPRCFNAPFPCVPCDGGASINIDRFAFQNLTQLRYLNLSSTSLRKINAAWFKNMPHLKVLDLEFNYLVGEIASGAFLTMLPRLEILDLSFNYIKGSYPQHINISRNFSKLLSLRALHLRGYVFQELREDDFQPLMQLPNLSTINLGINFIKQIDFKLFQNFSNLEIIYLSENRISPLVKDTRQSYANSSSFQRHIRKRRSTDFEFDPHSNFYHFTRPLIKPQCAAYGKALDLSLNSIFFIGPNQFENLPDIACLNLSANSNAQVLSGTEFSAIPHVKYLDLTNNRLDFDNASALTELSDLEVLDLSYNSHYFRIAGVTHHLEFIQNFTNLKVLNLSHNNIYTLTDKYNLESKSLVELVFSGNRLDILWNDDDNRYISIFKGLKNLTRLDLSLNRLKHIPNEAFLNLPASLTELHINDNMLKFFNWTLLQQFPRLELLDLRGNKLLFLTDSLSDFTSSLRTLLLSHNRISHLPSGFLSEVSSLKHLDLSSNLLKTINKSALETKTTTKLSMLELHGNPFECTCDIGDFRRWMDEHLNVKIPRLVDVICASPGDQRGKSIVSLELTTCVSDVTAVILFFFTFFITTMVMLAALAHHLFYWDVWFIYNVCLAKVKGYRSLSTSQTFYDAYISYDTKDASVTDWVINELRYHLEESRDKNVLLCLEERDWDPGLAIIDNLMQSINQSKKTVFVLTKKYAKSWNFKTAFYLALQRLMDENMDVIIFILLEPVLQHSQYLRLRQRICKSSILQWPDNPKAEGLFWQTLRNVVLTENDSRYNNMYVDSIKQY
Put plainly: HEK293-Blue-hTLR-8 cells assay.

For the next experiment, the target named is T2, human TLR7 (Homo sapiens, UniProt Q9NYK1).
T2 construct: host or cells: HEK293 (HEK-Blue hTLR7)
T2 sequence (Q9NYK1 27-1049): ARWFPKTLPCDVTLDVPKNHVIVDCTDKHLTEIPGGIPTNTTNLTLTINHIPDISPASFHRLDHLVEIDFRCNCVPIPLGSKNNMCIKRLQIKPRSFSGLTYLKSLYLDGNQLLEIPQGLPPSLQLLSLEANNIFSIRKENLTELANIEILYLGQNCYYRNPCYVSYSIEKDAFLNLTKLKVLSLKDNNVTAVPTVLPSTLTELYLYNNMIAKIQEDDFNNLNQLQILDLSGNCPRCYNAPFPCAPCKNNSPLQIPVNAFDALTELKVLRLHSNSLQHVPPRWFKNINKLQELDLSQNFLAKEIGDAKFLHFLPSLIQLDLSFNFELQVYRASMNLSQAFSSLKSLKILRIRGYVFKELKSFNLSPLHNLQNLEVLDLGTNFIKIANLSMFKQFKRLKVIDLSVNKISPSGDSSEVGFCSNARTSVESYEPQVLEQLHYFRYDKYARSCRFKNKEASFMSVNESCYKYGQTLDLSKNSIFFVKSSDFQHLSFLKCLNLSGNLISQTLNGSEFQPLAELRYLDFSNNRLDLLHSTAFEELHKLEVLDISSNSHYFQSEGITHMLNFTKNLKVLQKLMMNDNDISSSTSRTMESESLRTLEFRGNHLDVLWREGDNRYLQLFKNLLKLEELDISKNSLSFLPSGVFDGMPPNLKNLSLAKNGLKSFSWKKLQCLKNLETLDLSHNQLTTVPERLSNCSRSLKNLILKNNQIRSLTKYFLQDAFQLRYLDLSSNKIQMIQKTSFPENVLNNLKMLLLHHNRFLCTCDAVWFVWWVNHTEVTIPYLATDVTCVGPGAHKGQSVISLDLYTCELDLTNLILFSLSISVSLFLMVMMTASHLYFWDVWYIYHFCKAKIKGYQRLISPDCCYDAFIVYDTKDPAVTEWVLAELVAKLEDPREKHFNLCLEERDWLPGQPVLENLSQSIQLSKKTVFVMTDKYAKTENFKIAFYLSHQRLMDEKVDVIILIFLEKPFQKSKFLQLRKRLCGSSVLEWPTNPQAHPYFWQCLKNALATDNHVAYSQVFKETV
Put plainly: HEK293-Blue-hTLR-7 cells assay. Format: cell-based. As to conditions: HEK293-Blue-hTLR7 cells, R848 stimulation, 20 hrs, SEAP reporter; read-out: HEK/hTLR7 IC50.

Turning to `Cc1nc(N2CC(C)(N)C2)ccc1CN1CCN2[C@@H](C1)CN(c1ccc(C#N)c3ncccc13)C[C@H]2C` [Example 76, 5-[(4R,9aS)-8-[[6-(3-amino-3-methyl-azetidin-1-yl)-2-methyl-3-pyridyl]methyl]-4-methyl-3,4,6,7,9,9a-hexahydro-1H-pyrazino[1,2-a]pyrazin-2-yl]quinoline-8-carbonitrile], the IC50 is 5 nM against human TLR8 and 16 nM on human TLR7.
Taken in the same sequence, the figures for `CO[C@H]1CN(c2ccc(CCN3CCN4[C@@H](C3)CN(c3ccc(C#N)c5ncccc35)C[C@H]4C)cn2)C[C@@H]1N` [Example 25, 5-[(4R,9aS)-8-[2-[6-[(3S,4S)-3-amino-4-methoxy-pyrrolidin-1-yl]-3-pyridyl]ethyl]-4-methyl-3,4,6,7,9,9a-hexahydro-1H-pyrazino[1,2-a]pyrazin-2-yl]quinoline-8-carbonitrile] were 25 nM and 13 nM.
Turning to `CO[C@@H]1CN(c2ccc(CCN3CCN4[C@@H](C3)CN(c3ccc(C#N)n5ncc(F)c35)C[C@H]4C)cn2)C[C@H]1N` [Example 67, 4-[(4R,9aS)-8-[2-[6-[(3R,4R)-3-amino-4-methoxy-pyrrolidin-1-yl]-3-pyridyl]ethyl]-4-methyl-3,4,6,7,9,9a-hexahydro-1H-pyrazino[1,2-a]pyrazin-2-yl]-3-fluoro-pyrazolo[1,5-a]pyridine-7-carbonitrile], the IC50 was 84 nM against human TLR8 and 65 nM on human TLR7.
Taken in the same sequence, the figures for `[2H]c1ccc2c(N3C[C@@H]4CN(CCc5ccc(N6C[C@H]7NCCO[C@@H]7C6)nc5)CCN4[C@H](C)C3)ccc(C#N)c2n1` [Example 77, 5-[(4R,9aS)-8-[2-[6-[(4aR,7aR)-3,4,4a,5,7,7a-hexahydro-2H-pyrrolo[3,4-b][1,4]oxazin-6-yl]-3-pyridyl]ethyl]-4-methyl-3,4,6,7,9,9a-hexahydro-1H-pyrazino[1,2-a]pyrazin-2-yl]-2-deuterio-quinoline-8-carbonitrile] were 24 nM and 21 nM.
The like results for `[2H]c1ccc2c(N3C[C@@H]4CN(c5ncc(N6CC7CC(C6)N7)cc5C)CCN4[C@@H](C)C3)ccc(C#N)c2n1` [Example 108, 5-[(4S,9aR)-8-[5-(3,6-diazabicyclo[3.1.1]heptan-3-yl)-3-methyl-2-pyridyl]-4-methyl-3,4,6,7,9,9a-hexahydro-1H-pyrazino[1,2-a]pyrazin-2-yl]-2-deuterio-quinoline-8-carbonitrile] were, in that order, 6 nM and 3 nM.
The like results for `[2H]c1ccc2c(N3C[C@@H]4CN(c5ncc(C(=O)N6CC7(CN(C)C7)C6)cc5C)CCN4[C@H](C)C3)ccc(C#N)c2n1` [Example 102, 5-[(4R,9aR)-4-methyl-8-[3-methyl-5-(6-methyl-2,6-diazaspiro[3.3]heptane-2-carbonyl)-2-pyridyl]-3,4,6,7,9,9a-hexahydro-1H-pyrazino[1,2-a]pyrazin-2-yl]-2-deuterio-quinoline-8-carbonitrile] were, in that order, 2 nM and 4 nM.
With `C[C@@H]1CN(c2ccc(C#N)c3ncccc23)C[C@@H]2CN(c3nccc4c3CCNC4)CCN21` [Example 16, 5-[(4R,9aR)-4-methyl-8-(5,6,7,8-tetrahydro-2,6-naphthyridin-1-yl)-3,4,6,7,9,9a-hexahydro-1H-pyrazino[1,2-a]pyrazin-2-yl]quinoline-8-carbonitrile], the values for the IC50 on human TLR8 and on human TLR7 were 9 nM and 6 nM, respectively.
Taken in the same sequence, the figures for `[2H]c1ccc2c(N3C[C@@H]4CN(c5ccc([C@H]6CNCCO6)cc5)CCN4[C@@H](C)C3)ccc(C#N)c2n1` [Example 107, 5-[(4S,9aS)-4-methyl-8-[4-[(2S)-morpholin-2-yl]phenyl]-3,4,6,7,9,9a-hexahydro-1H-pyrazino[1,2-a]pyrazin-2-yl]-2-deuterio-quinoline-8-carbonitrile] were 4 nM and 3 nM.
Taken in the same sequence, the figures for `[2H]c1ccc2c(N3C[C@@H]4CN(c5ncc(N6CC(C)(N)C6)cc5C)CCN4[C@@H](C)C3)ccc(C#N)c2n1` [Example 118, 5-[(4S,9aR)-8-[5-(3-amino-3-methyl-azetidin-1-yl)-3-methyl-2-pyridyl]-4-methyl-3,4,6,7,9,9a-hexahydro-1H-pyrazino[1,2-a]pyrazin-2-yl]-2-deuterio-quinoline-8-carbonitrile] were 6 nM and 4 nM.
The like results for `C[C@@H]1CN(c2ccc(C#N)c3ncccc23)C[C@@H]2CN(Cc3cncc(N4CCNCC4)c3)CCN21` [Example 57, 5-[(4R,9aS)-4-methyl-8-[(5-piperazin-1-yl-3-pyridyl)methyl]-3,4,6,7,9,9a-hexahydro-1H-pyrazino[1,2-a]pyrazin-2-yl]quinoline-8-carbonitrile] were, in that order, 22 nM and 23 nM.
`[2H]c1ccc2c(N3C[C@@H]4CN(Cc5ccc(N6CC(C)(N)C6)nc5C)CCN4[C@H](C)C3)ccc(C#N)c2n1` [Example 79, 5-[(4R,9aS)-8-[[6-(3-amino-3-methyl-azetidin-1-yl)-2-methyl-3-pyridyl]methyl]-4-methyl-3,4,6,7,9,9a-hexahydro-1H-pyrazino[1,2-a]pyrazin-2-yl]-2-deuterio-quinoline-8-carbonitrile]: the results for the IC50 at human TLR8 and at human TLR7 were 6 nM and 19 nM, respectively.
On to `[2H]c1ccc2c(N3C[C@@H]4CN(c5ccc(CCN6C[C@H](OC)[C@@H](N)C6)cn5)CCN4[C@H](C)C3)ccc(C#N)c2n1` [Example 109, 5-[(4R,9aR)-8-[5-[2-[(3S,4S)-3-amino-4-methoxy-pyrrolidin-1-yl]ethyl]-2-pyridyl]-4-methyl-3,4,6,7,9,9a-hexahydro-1H-pyrazino[1,2-a]pyrazin-2-yl]-2-deuterio-quinoline-8-carbonitrile], for which the IC50 against human TLR8 is 4 nM; on human TLR7, 5 nM.
The like results for `[2H]c1ccc2c(N3C[C@@H]4CN(c5ccc(N6CC7CCC(C6)N7)nc5)CCN4[C@@H](C)C3)ccc(C#N)c2n1` [Example 112, 5-[(4S,9aR)-8-[6-(3,8-diazabicyclo[3.2.1]octan-3-yl)-3-pyridyl]-4-methyl-3,4,6,7,9,9a-hexahydro-1H-pyrazino[1,2-a]pyrazin-2-yl]-2-deuterio-quinoline-8-carbonitrile] were, in that order, 10 nM and 4 nM.
Taken in the same sequence, the figures for `CO[C@@H]1CN(c2nccc(N3CCN4[C@@H](C3)CN(c3ccc(C#N)c5ncccc35)C[C@H]4C)n2)C[C@H]1N` [Example 36, 5-[(4R,9aR)-8-[2-[(3R,4R)-3-amino-4-methoxy-pyrrolidin-1-yl]pyrimidin-4-yl]-4-methyl-3,4,6,7,9,9a-hexahydro-1H-pyrazino[1,2-a]pyrazin-2-yl]quinoline-8-carbonitrile] were 15 nM and 13 nM.
